Assay results from patent publication US20250230165A1, “HETEROCYCLIC COMPOUNDS FOR USE IN THE TREATMENT OF CANCER” (ARTIOS PHARMA LIMITED, priority 2021, published 2025).

Target: T1, Human Polθ polymerase domain (aa1820-2590) (Homo sapiens, UniProt O75417)
T1 construct: Human Polθ polymerase domain (aa1820-2590) was expressed in E. coli; made in house; host or cells: E. coli
T1 sequence (O75417 1820-2590): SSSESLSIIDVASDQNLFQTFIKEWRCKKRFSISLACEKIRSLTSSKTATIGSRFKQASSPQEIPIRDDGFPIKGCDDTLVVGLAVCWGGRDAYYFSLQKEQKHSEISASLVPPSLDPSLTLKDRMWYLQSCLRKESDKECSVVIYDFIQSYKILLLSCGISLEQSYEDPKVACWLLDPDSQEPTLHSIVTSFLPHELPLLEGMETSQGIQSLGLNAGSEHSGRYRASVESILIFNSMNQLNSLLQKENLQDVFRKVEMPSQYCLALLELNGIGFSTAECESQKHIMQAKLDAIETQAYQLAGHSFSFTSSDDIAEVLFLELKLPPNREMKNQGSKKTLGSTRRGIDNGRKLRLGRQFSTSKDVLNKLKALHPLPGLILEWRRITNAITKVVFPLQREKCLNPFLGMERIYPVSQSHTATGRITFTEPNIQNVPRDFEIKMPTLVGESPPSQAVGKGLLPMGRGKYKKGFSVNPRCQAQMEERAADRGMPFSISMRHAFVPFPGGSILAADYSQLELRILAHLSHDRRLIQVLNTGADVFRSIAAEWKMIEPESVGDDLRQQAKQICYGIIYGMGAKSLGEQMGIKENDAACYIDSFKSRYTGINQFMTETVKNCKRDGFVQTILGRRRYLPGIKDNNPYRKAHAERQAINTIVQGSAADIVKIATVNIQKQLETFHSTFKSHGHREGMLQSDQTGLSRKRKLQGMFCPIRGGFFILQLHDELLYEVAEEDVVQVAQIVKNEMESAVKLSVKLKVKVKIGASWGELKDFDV
Test: Polθ Polymerase Domain Kinact/KI Assay (PicoGreen)
Type: biochemical
Settings: 0.8 nM Polθ, 100 nM DNA substrate, kobs vs [I] fit for 2-step covalent inhibitor
Method in brief: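 Time-dependent inhibition was followed by quenching reactions with EDTA at points up to 60 min, then staining product DNA with PicoGreen fluorescence. Reactions held 0.8 nM E. coli-expressed Polθ, 100 nM primed DNA substrate and […] at pH 7.5, 1% DMSO. kobs versus inhibitor concentration gave Kinact and KI.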

| SMILES | Kinact/Kl [M⁻¹ s⁻¹] |
| --- | --- |
| C=CC(=O)N1CC2(C1)CN(C(=O)CN1C[C@H]3CC(=O)N(c4cc(C(F)(F)F)cc(C)n4)[C@@H]3C(=O)N(C)c3cccc(F)c31)C[C@@H](C)N2 [Example 52, (3aR,11aS)-5-(2-((R)-2-acryloyl-6-methyl-2,5,8-triazaspiro[3.5]nonan-8-yl)-2-oxoethyl)-6-fluoro-10-methyl-1-(6-methyl-4-(trifluoromethyl)pyridin-2-yl)-1,3a,4,5,10,11a-hexahydro-2H-benzo[b]pyrrolo[2,3-f][1,4]diazocine-2,11(3H)-dione] | 190000 |
| C=CC(=O)N1C[C@@H]2CN(CCN3C[C@H]4CC(=O)N(c5cc(C(F)(F)F)cc(C)n5)[C@@H]4C(=O)N(C)c4cccc(F)c43)CCN2[C@H](C)C1 [Example 63a, (3aR,11aS)-5-(2-((6R/S,9aS/R)-8-acryloyl-6-methyloctahydro-2H-pyrazino[1,2-a]pyrazin-2-yl)ethyl)-6-fluoro-10-methyl-1-(6-methyl-4-(trifluoromethyl)pyridin-2-yl)-1,3a,4,5,10,11a-hexahydro-2H-benzo[b]pyrrolo[2,3-f][1,4]diazocine-2,11(3H)-dione] | 3.1e+06 |
| C=CC(=O)N1C[C@H]2CN(CCN3C[C@H]4CC(=O)N(c5cc(C(F)(F)F)cc(C)n5)[C@@H]4C(=O)N(C)c4cccc(F)c43)CCN2[C@@H](C)C1 [Example 63b, (3aR,11aS)-5-(2-((6S/R,9aR/S)-8-acryloyl-6-methyloctahydro-2H-pyrazino[1,2-a]pyrazin-2-yl)ethyl)-6-fluoro-10-methyl-1-(6-methyl-4-(trifluoromethyl)pyridin-2-yl)-1,3a,4,5,10,11a-hexahydro-2H-benzo[b]pyrrolo[2,3-f][1,4]diazocine-2,11(3H)-dione] | 190000 |
| C=C(CN(C)C)C(=O)N1CC(C(=O)N(C)CCN2C[C@H]3CC(=O)N(c4cc(C(F)(F)F)cc(C)n4)[C@@H]3C(=O)N(C)c3cccc(Cl)c32)C1 [Example 65, N-(2-((3aR,11aS)-6-chloro-10-methyl-1-(6-methyl-4-(trifluoromethyl)pyridin-2-yl)-2,11-dioxo-1,2,3,3a,4,10,11,11a-octahydro-5H-benzo[b]pyrrolo[2,3-f][1,4]diazocin-5-yl)ethyl)-1-(2-((dimethylamino)methyl)acryloyl)-N-methylazetidine-3-carboxamide] | 4.96e+06 |
| C=CC(=O)N1CC[C@H](NCCN2C[C@H]3CC(=O)N(c4cc(C(F)(F)F)cc(C)n4)[C@@H]3C(=O)N(C)c3cccc(Cl)c32)[C@H](F)C1 [Example 66, (3aR,11aS)-5-(2-(((3R,4S)-1-acryloyl-3-fluoropiperidin-4-yl)amino)ethyl)-6-chloro-10-methyl-1-(6-methyl-4-(trifluoromethyl)pyridin-2-yl)-1,3a,4,5,10,11a-hexahydro-2H-benzo[b]pyrrolo[2,3-f][1,4]diazocine-2,11(3H)-dione] | 2.11e+06 |
| C=CC(=O)N1CC[C@H](N(C)CCN2C[C@H]3CC(=O)N(c4cc(C(F)(F)F)cc(C)n4)[C@@H]3C(=O)N(C)c3cccc(Cl)c32)[C@H](F)C1 [Example 67, (3aR,11aS)-5-(2-(((3R,4S)-1-acryloyl-3-fluoropiperidin-4-yl)(methyl)amino)ethyl)-6-chloro-10-methyl-1-(6-methyl-4-(trifluoromethyl)pyridin-2-yl)-1,3a,4,5,10,11a-hexahydro-2H-benzo[b]pyrrolo[2,3-f][1,4]diazocine-2,11(3H)-dione] | 2.32e+06 |
| C=CC(=O)N1CC(NCCCN2C[C@H]3CC(=O)N(c4cc(C(F)(F)F)cc(C)n4)[C@@H]3C(=O)N(C)c3cccc(F)c32)C1 [Example 70, (3aR,11aS)-5-(3-((1-acryloylazetidin-3-yl)amino)propyl)-6-fluoro-10-methyl-1-(6-methyl-4-(trifluoromethyl)pyridin-2-yl)-1,3a,4,5,10,11a-hexahydro-2H-benzo[b]pyrrolo[2,3-f][1,4]diazocine-2,11(3H)-dione] | 970000 |

Second part, the compound after the results:

| Kinact/Kl [M⁻¹ s⁻¹] | SMILES |
| --- | --- |
| 340000 | C=CC(=O)N1CCc2c(ncn2CCN2C[C@H]3CC(=O)N(c4cc(C(F)(F)F)cc(C)n4)[C@@H]3C(=O)N(C)c3cccc(F)c32)C1 [Example 49, (3aR,11aS)-5-(2-(5-acryloyl-4,5,6,7-tetrahydro-1H-imidazo[4,5-c]pyridin-1-yl)ethyl)-6-fluoro-10-methyl-1-(6-methyl-4-(trifluoromethyl)pyridin-2-yl)-1,3a,4,5,10,11a-hexahydro-2H-benzo[b]pyrrolo[2,3-f][1,4]diazocine-2,11(3H)-dione] |
| 190000 | C=CC(=O)N1CCc2ncn(CCN3C[C@H]4CC(=O)N(c5cc(C(F)(F)F)cc(C)n5)[C@@H]4C(=O)N(C)c4cccc(F)c43)c2C1 [Example 50, (3aR,11aS)-5-(2-(5-acryloyl-4,5,6,7-tetrahydro-3H-imidazo[4,5-c]pyridin-3-yl)ethyl)-6-fluoro-10-methyl-1-(6-methyl-4-(trifluoromethyl)pyridin-2-yl)-1,3a,4,5,10,11a-hexahydro-2H-benzo[b]pyrrolo[2,3-f][1,4]diazocine-2,11(3H)-dione] |
| 210000 | C=CC(=O)N1CC(N2CCN(C(=O)CN3C[C@H]4CC(=O)N(c5cc(C(F)(F)F)cc(C)n5)[C@@H]4C(=O)N(C)c4cccc(F)c43)CC2)C1 [Example 51, (3aR,11aS)-5-(2-(4-(1-acryloylazetidin-3-yl)piperazin-1-yl)-2-oxoethyl)-6-fluoro-10-methyl-1-(6-methyl-4-(trifluoromethyl)pyridin-2-yl)-1,3a,4,5,10,11a-hexahydro-2H-benzo[b]pyrrolo[2,3-f][1,4]diazocine-2,11(3H)-dione] |
| 24000 | C=CC(=O)N1CCN(c2cc(N3C[C@H]4CC(=O)N(c5cc(C(F)(F)F)cc(C)n5)[C@@H]4C(=O)N(C)c4cccc(F)c43)ccn2)CC1 [Example 53, (3aR,11aS)-5-(2-(4-acryloylpiperazin-1-yl)pyridin-4-yl)-6-fluoro-10-methyl-1-(6-methyl-4-(trifluoromethyl)pyridin-2-yl)-1,3a,4,5,10,11a-hexahydro-2H-benzo[b]pyrrolo[2,3-f][1,4]diazocine-2,11(3H)-dione] |
| 110000 | C=CC(=O)N1CCN(c2cccc(N3C[C@H]4CC(=O)N(c5cc(C(F)(F)F)cc(C)n5)[C@@H]4C(=O)N(C)c4cccc(F)c43)c2)CC1 [Example 54, (3aR,11aS)-5-(3-(4-acryloylpiperazin-1-yl)phenyl)-6-fluoro-10-methyl-1-(6-methyl-4-(trifluoromethyl)pyridin-2-yl)-1,3a,4,5,10,11a-hexahydro-2H-benzo[b]pyrrolo[2,3-f][1,4]diazocine-2,11(3H)-dione] |
| 15000 | C=CC(=O)N1CCN(c2cccc(N3C[C@H]4CC(=O)N(c5cc(C(F)(F)F)cc(C)n5)[C@@H]4C(=O)N(C)c4cccc(F)c43)n2)CC1 [Example 55, (3aR,11aS)-5-(6-(4-acryloylpiperazin-1-yl)pyridin-2-yl)-6-fluoro-10-methyl-1-(6-methyl-4-(trifluoromethyl)pyridin-2-yl)-1,3a,4,5,10,11a-hexahydro-2H-benzo[b]pyrrolo[2,3-f][1,4]diazocine-2,11(3H)-dione] |
| 36000 | C=CC(=O)N1CCN(c2cccc(N3C[C@H]4CC(=O)N(c5cc(C(F)(F)F)cc(C)n5)[C@@H]4C(=O)N(C)c4cccc(Cl)c43)n2)CC1 [Example 56, (3aR,11aS)-5-(6-(4-acryloylpiperazin-1-yl)pyridin-2-yl)-6-chloro-10-methyl-1-(6-methyl-4-(trifluoromethyl)pyridin-2-yl)-1,3a,4,5,10,11a-hexahydro-2H-benzo[b]pyrrolo[2,3-f][1,4]diazocine-2,11(3H)-dione] |
| 34000 | C=CC(=O)N1CC(Oc2cccc(N3C[C@H]4CC(=O)N(c5cc(C(F)(F)F)cc(C)n5)[C@@H]4C(=O)N(C)c4cccc(F)c43)n2)C1 [Example 57, (3aR,11aS)-5-(6-((1-acryloylazetidin-3-yl)oxy)pyridin-2-yl)-6-fluoro-10-methyl-1-(6-methyl-4-(trifluoromethyl)pyridin-2-yl)-1,3a,4,5,10,11a-hexahydro-2H-benzo[b]pyrrolo[2,3-f][1,4]diazocine-2,11(3H)-dione] |
| 270000 | C=CC(=O)N1C[C@@H]2CN(CCN3C[C@H]4CC(=O)N(c5cc(C(F)(F)F)cc(C)n5)[C@@H]4C(=O)N(C)c4cccc(F)c43)CCN2[C@@H](C)C1 [Example 64b, (3aR,11aS)-5-(2-((6S/R,9aS/R)-8-acryloyl-6-methyloctahydro-2H-pyrazino[1,2-a]pyrazin-2-yl)ethyl)-6-fluoro-10-methyl-1-(6-methyl-4-(trifluoromethyl)pyridin-2-yl)-1,3a,4,5,10,11a-hexahydro-2H-benzo[b]pyrrolo[2,3-f][1,4]diazocine-2,11(3H)-dione] |
